Test results reported in ChEMBL document CHEMBL1145900, “Histone deacetylase inhibitors” (J Med Chem, 2003).
≈ marks a conversion by molar mass, not a printed value. One block for each compound: values may come before it.

What was measured:
Histone deacetylase 1 [1] = molecular target: Histone deacetylase 1 (Homo sapiens, UniProt Q13547, C151S); assay: Inhibitory concentration against human Histone deacetylase 1 (C151S)
Histone deacetylase 4 = Histone deacetylase 4 (Homo sapiens, UniProt P56524)
Histone deacetylase 4, sequence (P56524 whole entry): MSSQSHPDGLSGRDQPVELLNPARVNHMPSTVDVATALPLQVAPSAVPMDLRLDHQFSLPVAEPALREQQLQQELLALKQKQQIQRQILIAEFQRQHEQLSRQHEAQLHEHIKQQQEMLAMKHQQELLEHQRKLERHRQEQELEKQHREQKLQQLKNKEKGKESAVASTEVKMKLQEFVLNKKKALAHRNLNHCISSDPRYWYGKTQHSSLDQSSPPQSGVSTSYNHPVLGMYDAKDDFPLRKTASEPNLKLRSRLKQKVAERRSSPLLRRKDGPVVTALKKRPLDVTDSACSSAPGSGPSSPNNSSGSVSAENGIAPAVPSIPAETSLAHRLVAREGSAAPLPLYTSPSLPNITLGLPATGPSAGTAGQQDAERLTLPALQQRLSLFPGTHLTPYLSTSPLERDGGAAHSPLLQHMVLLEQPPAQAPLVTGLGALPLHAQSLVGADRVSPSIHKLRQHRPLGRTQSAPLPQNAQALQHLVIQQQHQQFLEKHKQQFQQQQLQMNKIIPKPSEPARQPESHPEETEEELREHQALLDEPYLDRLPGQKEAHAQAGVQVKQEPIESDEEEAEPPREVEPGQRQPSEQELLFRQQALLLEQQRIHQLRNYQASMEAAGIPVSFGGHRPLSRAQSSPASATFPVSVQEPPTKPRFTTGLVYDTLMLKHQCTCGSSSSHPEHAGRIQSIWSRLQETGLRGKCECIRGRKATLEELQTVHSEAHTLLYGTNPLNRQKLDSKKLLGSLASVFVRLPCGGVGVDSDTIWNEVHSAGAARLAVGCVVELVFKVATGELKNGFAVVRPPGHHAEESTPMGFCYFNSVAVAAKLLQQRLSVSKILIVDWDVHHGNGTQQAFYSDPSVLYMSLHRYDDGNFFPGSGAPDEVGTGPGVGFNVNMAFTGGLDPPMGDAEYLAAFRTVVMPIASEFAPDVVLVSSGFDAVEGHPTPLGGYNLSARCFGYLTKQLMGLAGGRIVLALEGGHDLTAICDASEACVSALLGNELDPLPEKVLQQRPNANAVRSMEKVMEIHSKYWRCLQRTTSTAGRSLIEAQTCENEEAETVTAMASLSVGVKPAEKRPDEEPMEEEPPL
Description: Inhibitory concentration against human Histone deacetylase 4

Histone deacetylase 2 = Histone deacetylase 2 (Homo sapiens, UniProt Q92769); assay: Inhibitory concentration against human Histone deacetylase 2
Histone deacetylase 2, sequence (Q92769 whole entry): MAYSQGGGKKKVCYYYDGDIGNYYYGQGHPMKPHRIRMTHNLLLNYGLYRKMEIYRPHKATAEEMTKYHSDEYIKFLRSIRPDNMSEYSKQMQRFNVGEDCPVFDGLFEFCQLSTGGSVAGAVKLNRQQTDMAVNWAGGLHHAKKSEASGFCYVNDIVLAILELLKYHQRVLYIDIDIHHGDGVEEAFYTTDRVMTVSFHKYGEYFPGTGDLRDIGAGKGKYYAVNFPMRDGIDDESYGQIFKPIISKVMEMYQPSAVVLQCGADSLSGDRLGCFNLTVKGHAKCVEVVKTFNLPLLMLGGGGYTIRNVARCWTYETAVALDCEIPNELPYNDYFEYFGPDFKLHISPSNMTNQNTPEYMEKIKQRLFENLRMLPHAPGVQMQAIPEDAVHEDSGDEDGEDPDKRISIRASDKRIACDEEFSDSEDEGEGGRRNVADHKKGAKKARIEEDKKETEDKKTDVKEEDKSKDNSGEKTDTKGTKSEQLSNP

Histone deacetylase 1 [2] = molecular target: Histone deacetylase 1 (Homo sapiens, UniProt Q13547); assay: Inhibitory concentration against human Histone deacetylase 1
Histone deacetylase 1 (Homo sapiens, UniProt Q13547), sequence (Q13547 whole entry): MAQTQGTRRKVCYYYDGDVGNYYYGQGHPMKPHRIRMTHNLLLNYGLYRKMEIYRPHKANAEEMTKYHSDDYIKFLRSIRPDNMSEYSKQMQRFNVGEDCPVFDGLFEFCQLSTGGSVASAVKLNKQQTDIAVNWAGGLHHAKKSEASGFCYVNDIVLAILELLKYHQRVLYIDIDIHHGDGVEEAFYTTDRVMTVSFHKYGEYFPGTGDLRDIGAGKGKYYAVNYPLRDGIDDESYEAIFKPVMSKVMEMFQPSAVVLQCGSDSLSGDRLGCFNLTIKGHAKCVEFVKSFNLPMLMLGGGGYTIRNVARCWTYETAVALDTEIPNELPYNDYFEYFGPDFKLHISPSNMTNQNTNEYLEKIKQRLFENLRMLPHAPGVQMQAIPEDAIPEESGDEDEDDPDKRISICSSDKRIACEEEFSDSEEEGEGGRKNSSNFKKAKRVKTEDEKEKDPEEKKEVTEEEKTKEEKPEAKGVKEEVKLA

[3] = molecular target: T1, Protein deacetylase HDAC6 (Homo sapiens, UniProt Q9UBN7); assay: Inhibitory concentration against human Histone deacetylase 6
T1 sequence (Q9UBN7 whole entry): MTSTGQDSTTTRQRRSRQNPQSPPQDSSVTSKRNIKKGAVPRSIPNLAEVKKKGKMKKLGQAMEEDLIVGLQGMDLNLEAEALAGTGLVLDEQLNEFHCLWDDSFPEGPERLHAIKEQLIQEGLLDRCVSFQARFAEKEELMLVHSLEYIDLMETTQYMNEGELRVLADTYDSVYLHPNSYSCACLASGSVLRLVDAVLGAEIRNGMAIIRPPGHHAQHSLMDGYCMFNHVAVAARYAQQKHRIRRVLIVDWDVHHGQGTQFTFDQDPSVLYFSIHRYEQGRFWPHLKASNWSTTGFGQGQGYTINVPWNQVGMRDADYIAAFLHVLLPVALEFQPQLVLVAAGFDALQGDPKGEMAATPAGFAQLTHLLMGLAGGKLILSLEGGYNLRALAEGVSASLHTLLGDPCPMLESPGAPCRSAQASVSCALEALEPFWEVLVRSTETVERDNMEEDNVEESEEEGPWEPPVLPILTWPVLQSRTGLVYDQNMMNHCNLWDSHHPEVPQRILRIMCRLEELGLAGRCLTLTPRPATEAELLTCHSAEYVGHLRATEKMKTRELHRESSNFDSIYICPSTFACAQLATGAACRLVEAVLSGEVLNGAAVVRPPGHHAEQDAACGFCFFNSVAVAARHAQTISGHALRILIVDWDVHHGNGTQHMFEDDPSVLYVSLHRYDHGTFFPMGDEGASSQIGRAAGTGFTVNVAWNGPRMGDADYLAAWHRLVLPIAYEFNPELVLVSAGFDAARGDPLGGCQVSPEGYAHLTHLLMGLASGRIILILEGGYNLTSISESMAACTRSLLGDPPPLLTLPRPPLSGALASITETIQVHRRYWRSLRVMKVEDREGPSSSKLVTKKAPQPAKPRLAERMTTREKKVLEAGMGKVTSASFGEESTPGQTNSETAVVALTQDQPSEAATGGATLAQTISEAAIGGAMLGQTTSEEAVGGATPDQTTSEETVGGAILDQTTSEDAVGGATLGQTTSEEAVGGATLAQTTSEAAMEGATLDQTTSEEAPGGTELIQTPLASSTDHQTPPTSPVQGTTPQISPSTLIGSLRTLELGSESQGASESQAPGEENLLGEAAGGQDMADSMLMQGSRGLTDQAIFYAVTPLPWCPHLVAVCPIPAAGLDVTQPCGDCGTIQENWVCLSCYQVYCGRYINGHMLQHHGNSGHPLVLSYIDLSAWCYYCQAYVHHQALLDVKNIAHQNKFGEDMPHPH

[4] = molecular target: T2, Histone deacetylase (Homo sapiens) (UniProt Q13547+O15379+Q9UBN7+Q92769+Q9UQL6+Q8WUI4+Q9BY41+Q96DB2+P56524+Q9UKV0+Q969S8); assay: Inhibitory concentration against human Histone deacetylase; assay type: protein assay; settings: concentration not given here
HT-29 = assay: In vitro inhibitory concentration against HT-29 tumor cell proliferation; assay type: functional, cell-based; settings: Homo sapiens
Jurkat = assay: In vitro inhibitory concentration against human Jurkat cell proliferation; assay type: functional, cell-based
HCT-116 = assay: Inhibitory concentration against HCT116 cells proliferation; assay type: functional, cell-based; settings: Homo sapiens
Histone deacetylase = assay type: protein assay, Homo sapiens
Description: Inhibitory concentration against histone deacetylase

[5] = Inhibitory concentration against mixed human Histone deacetylase 1, Histone deacetylase 2 and Histone deacetylase 3
[6] = molecular target: T2, Histone deacetylase (Homo sapiens); assay: Percent inhibition against isolated Histone deacetylase enzyme at 30 uM; assay type: protein assay
Histone deacetylase HD2 = molecular target: T3, Histone deacetylase HD2 (Zea mays, UniProt Q94F81); assay: Inhibitory concentration against maize Histone deacetylase 2
T3 sequence (Q94F81 whole entry): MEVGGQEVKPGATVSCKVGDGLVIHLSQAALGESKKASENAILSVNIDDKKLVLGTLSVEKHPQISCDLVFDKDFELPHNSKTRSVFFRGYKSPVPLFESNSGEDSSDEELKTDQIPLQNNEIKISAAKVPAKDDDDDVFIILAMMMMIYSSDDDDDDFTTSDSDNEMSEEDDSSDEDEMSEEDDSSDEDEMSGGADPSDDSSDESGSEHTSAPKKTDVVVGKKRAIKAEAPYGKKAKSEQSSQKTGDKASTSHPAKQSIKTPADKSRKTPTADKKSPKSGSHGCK

Histone deacetylase 1 (Homo sapiens, UniProt Q13547, C151S), sequence (Q13547 whole entry C151S): as the sequence (Q13547 whole entry) above, with C151S counted along it

Structure (SMILES): C/C=C1\NC(=O)[C@H]2CSSCC/C=C/[C@H](CC(=O)N[C@H](C(C)C)C(=O)N2)OC(=O)[C@H](C(C)C)NC1=O [ROMIDEPSIN]
IC50 (Histone deacetylase 1 [1]): 0.28 µM

Structure (SMILES): C/C=C1\NC(=O)[C@@H](CSC)NC(=O)[C@@H](C(C)C)CC(=O)C[C@@H](/C=C/CCSC)OC(=O)[C@H](C(C)C)NC1=O
IC50 (Histone deacetylase 4): 110 µM
IC50 (Histone deacetylase 2): 3.3 µM
IC50 (Histone deacetylase 1 [2]): 6.3 µM
IC50 (Histone deacetylase 1 [1]): > 100 µM
IC50 [3]: > 100 µM

Structure (SMILES): O=C(/C=C/c1ccc(CNCCCc2ccccc2)cc1)NO
IC50 (HCT-116): 0.064 µM
IC50 (Histone deacetylase): 0.064 µM

Structure (SMILES): C/C=C1\NC(=O)[C@@H](CS)NC(=O)[C@@H](C(C)C)NC(=O)C[C@@H](/C=C/CCS)OC(=O)[C@H](C(C)C)NC1=O [FR-135313]
IC50 (Histone deacetylase 4): 0.025 µM
IC50 (Histone deacetylase 2): 0.0039 µM
IC50 [3]: 0.79 µM

Structure (SMILES): CN(C)c1ccc(C(=O)Nc2ccc(CC(=O)NO)cc2)cc1
IC50 (Histone deacetylase HD2): > 40 µM

Continued, values first:

inhibition [4]: 72%
Structure (SMILES): O=C(CCCCCCCOc1ccc(-c2ccccc2)cc1)C(F)(F)F

IC50 (HT-29): 0.158 µg/mL (≈ 0.268 µM)
IC50 (Jurkat): 0.152 µg/mL (≈ 0.258 µM)
Structure (SMILES): CCC(=O)CCCCC[C@@H]1NC(=O)[C@H]2CCCCN2C(=O)[C@H](Cc2ccccc2)NC(=O)[C@H](Cc2ccccc2)NC1=O

IC50 [5]: 0.009 µM
Structure (SMILES): N#Cc1ccc(-c2ccc(OCCCCCCC(=O)NO)cc2)cc1

inhibition [6]: 0%
Structure (SMILES): Cn1cc(C(=O)Cc2ccccc2)cc1/C=C/C#N
